This is an account of results in patent US12173018B2, “Penicillin-binding protein inhibitors” (priority 2018, dated 2024).

≈ marks a conversion by molar mass, not a printed value. Read-outs that look alike come from different tables or passages of the source.

Type in all cases: cell-based
One assay deals with E. coli AG100. Nature of the assay: Broth microdilution MIC, E. coli AG100 (wild-type parent). The note with it: Escherichia coli; wild-type parent E. coli AG100, broth microdilution; read-out: MIC E. coli AG100. Put shortly:
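Broth microdilution in cation-supplemented Mueller-Hinton broth, 2-fold serial compound dilutions, inoculum 5×10^5 CFU/mL from 3-5 h log culture.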
For orientation: Dilution methods test growth across graded concentrations, often in twofold steps.

A further assay deals with E. coli 901C. In words: microbe, parasite or virus in culture. As to conditions: Escherichia coli; hyper-permeable E. coli 901C, broth microdilution; read-out: MIC E. coli 901C. Put shortly: (§1)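 CLSI broth microdilution in cation-supplemented Mueller-Hinton broth; 2-fold compound dilutions inoculated at 5×10^5 CFU/mL from a 3-5 h log-phase culture. Plates incubated 16-20 hours at 37° C; MIC read visually as lowest concentration with no growth.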

The next assay deals with E. coli AG100A. Nature of the assay: microbe, parasite or virus in culture. As to conditions: Escherichia coli, read-out: MIC E. coli AG100A. The gist of the method: as §1
A further assay concerns E. coli D22. In words: microbe, parasite or virus in culture. As to conditions: Escherichia coli; hyper-permeable E. coli D22, broth microdilution; read-out: MIC E. coli D22. Put shortly:
as §1

Another assay relates to K. pneumoniae SI-117. Nature of the assay: microbe, parasite or virus in culture. As to conditions: Klebsiella pneumoniae, SI117, read-out: MIC K. pneumoniae SI-117. Put shortly: as §1
Another assay has as its system K. pneumoniae UMM. In words: microbe, parasite or virus in culture. The note with it: Klebsiella pneumoniae; K. pneumoniae UMM producing SHV-5 and KPC-2; read-out: MIC K. pneumoniae UMM. Put shortly:
as §1

In assay [1] the test system is P. aeruginosa (ΔmexAB-oprM). In words: microbe, parasite or virus in culture. As to conditions: Pseudomonas aeruginosa, read-out: MIC P. aeruginosa ΔmexAB-OprM. Put shortly: as §1
Another assay deals with P. aeruginosa ATCC 35151. Nature of the assay: microbe, parasite or virus in culture. As to conditions: Pseudomonas aeruginosa, ATCC35151; hyper-permeable P. aeruginosa ATCC 35151; read-out: MIC P. aeruginosa ATCC 35151. The gist of the method:
as §1

Another assay has as its system P. aeruginosa PAO1. Nature of the assay: Broth microdilution MIC, P. aeruginosa PAO1. As to conditions: Pseudomonas aeruginosa. The gist of the method:
as §1

A further assay concerns A. baumannii ATCC 19606. In words: Broth microdilution MIC, A. baumannii ATCC 19606. The note with it: Acinetobacter baumannii. Put shortly: as §1
Assay [2] relates to N. gonorrhoeae ATCC 49226. Nature of the assay: Liquid broth MIC, N. gonorrhoeae ATCC 49226. The note with it: Neisseria gonorrhoeae, ATCC49226; N. gonorrhoeae ATCC 49226, liquid broth; read-out: Minimum Inhibitory Concentration, N. gonorrhoeae ATCC 49226. Put shortly:
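MIC taken by eye as the lowest well lacking growth after 40-42 h at 36° C under 5% CO2. Compounds were 2-fold serially diluted; the starting inoculum of 5×10^5 CFU/mL came from direct colony suspensions grown on Kellogg's-supplemented GC agar.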

Where [3] appears, read: P. aeruginosa PAO1, broth microdilution, read-out: MIC P. aeruginosa PAO1.
Setting [4] is: ATCC19606, A. baumannii ATCC 19606, broth microdilution, read-out: MIC A. baumannii ATCC 19606.

Consider `CCN1C[C@H](C)N(C(=O)NC(C(=O)N[C@H]2Cc3ccc(F)c(C(=O)O)c3OB2O)c2ncc(O)cc2F)C(=O)C1=O` (stereo partly drawn) [Example 208, (3R)-3-(2-((S)-4-ethyl-6-methyl-2,3-dioxopiperazine-1-carboxamido)-2-(3-fluoro-5-hydroxypyridin-2-yl)acetamido)-7-fluoro-2-hydroxy-3,4-dihydro-2H-benzo[e][1,2]oxaborinine-8-carboxylic acid], for which the MIC in the assay on E. coli AG100 was 8 to 16 µg/mL; in the assay on E. coli 901C, less than 0.25 µg/mL; with E. coli AG100A it was 2 to 4 µg/mL; in the assay on E. coli D22, 2 to 4 µg/mL; in the assay with K. pneumoniae SI-117 it was 32 to 64 µg/mL; with K. pneumoniae UMM it was 8 to 16 µg/mL. The MIC was 32 to 64 µg/mL in [1]; less than 0.25 µg/mL in the assay on P. aeruginosa ATCC 35151; more than 128 µg/mL in the assay on P. aeruginosa PAO1 (setting [3]); more than 128 µg/mL in the assay with A. baumannii ATCC 19606 (setting [4]); 4 to 8 µg/mL (≈ 6.95 to 13.9 µM) in assay [2].

Regarding `CCN1CCN(C(=O)NC(C(=O)N[C@H]2Cc3cccc(C(=O)O)c3OB2O)c2ccc(S(N)(=O)=O)c(F)c2)C(=O)C1=O` (stereo partly drawn) [Example 210, (3R)-3-(2-(4-ethyl-2,3-dioxopiperazine-1-carboxamido)-2-(3-fluoro-4-sulfamoylphenyl)acetamido)-2-hydroxy-3,4-dihydro-2H-benzo[e][1,2]oxaborinine-8-carboxylic acid], the MIC in the assay with E. coli AG100 was 32 to 64 µg/mL; in the assay with E. coli 901C, less than 0.25 µg/mL; in the assay with E. coli AG100A it was 2 to 4 µg/mL; in the assay with E. coli D22, 2 to 4 µg/mL; in the assay on K. pneumoniae SI-117, more than 128 µg/mL; in the assay with K. pneumoniae UMM, 32 to 64 µg/mL. Also, the MIC is 2 to 4 µg/mL in assay [1]; 0.5 to 1 µg/mL with P. aeruginosa ATCC 35151; more than 128 µg/mL in the assay with P. aeruginosa PAO1 (setting [3]); more than 128 µg/mL in the assay on A. baumannii ATCC 19606 (setting [4]); 4 to 8 µg/mL (≈ 6.61 to 13.2 µM) in assay [2].

Turning to `CCN1CCN(C(=O)NC(C(=O)N[C@H]2Cc3cccc(C(=O)O)c3OB2O)c2ccc(C(=O)O)cc2)C(=O)C1=O` (stereo partly drawn) [Example 212, (3R)-3-(2-(4-carboxyphenyl)-2-(4-ethyl-2,3-dioxopiperazine-1-carboxamido)acetamido)-2-hydroxy-3,4-dihydro-2H-benzo[e][1,2]oxaborinine-8-carboxylic acid], the MIC with E. coli AG100 is 32 to 64 µg/mL; with E. coli 901C, less than 0.25 µg/mL; in the assay on E. coli AG100A, 8 to 16 µg/mL; in the assay with E. coli D22, 2 to 4 µg/mL; in the assay on K. pneumoniae SI-117, more than 128 µg/mL; in the assay with K. pneumoniae UMM it was 32 to 64 µg/mL. For the same compound, the MIC in assay [1] was 8 to 16 µg/mL; in the assay on P. aeruginosa ATCC 35151, less than 0.25 µg/mL; in the assay with P. aeruginosa PAO1 (PAO1, read-out: MIC P. aeruginosa PAO1), 32 to 64 µg/mL; in the assay on A. baumannii ATCC 19606 (ATCC19606, read-out: MIC A. baumannii ATCC 19606) it was more than 128 µg/mL; in [2], 0.25 to 0.5 µg/mL (≈ 0.453 to 0.905 µM).

As to `O=C(O)c1cccc2c1OB(O)[C@@H](NC(=O)C(NC(=O)N1CCN(CCF)C(=O)C1=O)c1ccc(S(=O)(=O)NCCO)cc1)C2` (stereo partly drawn) [Example 213, (3R)-3-(2-(4-(2-fluoroethyl)-2,3-dioxopiperazine-1-carboxamido)-2-(4-(N-(2-hydroxyethyl)sulfamoyl)phenyl)acetamido)-2-hydroxy-3,4-dihydro-2H-benzo[e][1,2]oxaborinine-8-carboxylic acid], the MIC in the assay on E. coli AG100 was 32 to 64 µg/mL; with E. coli 901C, 0.5 to 1 µg/mL; in the assay on E. coli AG100A it was 8 to 16 µg/mL; in the assay on E. coli D22, 2 to 4 µg/mL; with K. pneumoniae SI-117, more than 128 µg/mL; with K. pneumoniae UMM it was 32 to 64 µg/mL. Besides, the MIC in assay [1] was 8 to 16 µg/mL; with P. aeruginosa ATCC 35151 it was 2 to 4 µg/mL; in the assay on P. aeruginosa PAO1 (setting [3]), more than 128 µg/mL; in the assay with A. baumannii ATCC 19606 (setting [4]), more than 128 µg/mL; in assay [2], 4 to 8 µg/mL (≈ 6.16 to 12.3 µM).

As for `CCN1CCN(C(=O)NC(C(=O)N[C@H]2Cc3ccc(Cl)c(C(=O)O)c3OB2O)c2ncc(O)cc2F)C(=O)C1=O` (stereo partly drawn) [Example 216, (3R)-7-chloro-3-(2-(4-ethyl-2,3-dioxopiperazine-1-carboxamido)-2-(3-fluoro-5-hydroxypyridin-2-yl)acetamido)-2-hydroxy-3,4-dihydro-2H-benzo[e][1,2]oxaborinine-8-carboxylic acid], the MIC lay in the range of 32 to 64 µg/mL in the assay on E. coli AG100; 0.5 to 1 µg/mL in the assay on E. coli 901C; 8 to 16 µg/mL in the assay on E. coli AG100A; 2 to 4 µg/mL in the assay with E. coli D22; 32 to 64 µg/mL in the assay with K. pneumoniae SI-117; 32 to 64 µg/mL with K. pneumoniae UMM. Moreover, the MIC in [1] was 32 to 64 µg/mL; in the assay with P. aeruginosa ATCC 35151, less than 0.25 µg/mL; in the assay on P. aeruginosa PAO1 (setting [3]) it was more than 128 µg/mL; in the assay on A. baumannii ATCC 19606 (setting [4]) it was more than 128 µg/mL; in [2], 1 to 2 µg/mL (≈ 1.73 to 3.46 µM).

Consider `CCN1CCN(C(=O)NC(C(=O)N[C@H]2Cc3ccc(Cl)c(C(=O)O)c3OB2O)c2ccc(O)c(O)c2Cl)C(=O)C1=O` (stereo partly drawn) [Example 217, (3R)-7-chloro-3-(2-(2-chloro-3,4-dihydroxyphenyl)-2-(4-ethyl-2,3-dioxopiperazine-1-carboxamido)acetamido)-2-hydroxy-3,4-dihydro-2H-benzo[e][1,2]oxaborinine-8-carboxylic acid], for which the MIC with E. coli AG100, in the assay on E. coli 901C, in the assay with E. coli AG100A, in the assay on E. coli D22, in the assay on K. pneumoniae SI-117 and with K. pneumoniae UMM was 2 to 4 µg/mL throughout. In addition, the MIC in assay [1] is less than 0.25 µg/mL; with P. aeruginosa ATCC 35151, less than 0.25 µg/mL; with P. aeruginosa PAO1 (setting [3]), 2 to 4 µg/mL; in the assay with A. baumannii ATCC 19606 (setting [4]), 0.5 to 1 µg/mL; in assay [2], 16 to 32 µg/mL (≈ 26.3 to 52.5 µM).

As to `CC[C@H]1CN(CC)C(=O)C(=O)N1C(=O)NC(C(=O)N[C@H]1Cc2cccc(C(=O)O)c2OB1O)c1ncc(O)cc1F` (stereo partly drawn) [Example 218, (3R)-3-(2-((S)-4,6-diethyl-2,3-dioxopiperazine-1-carboxamido)-2-(3-fluoro-5-hydroxypyridin-2-yl)acetamido)-2-hydroxy-3,4-dihydro-2H-benzo[e][1,2]oxaborinine-8-carboxylic acid], the MIC in the assay on E. coli AG100 was 32 to 64 µg/mL; in the assay with E. coli 901C, less than 0.25 µg/mL; in the assay on E. coli AG100A, 2 to 4 µg/mL; in the assay with E. coli D22, 2 to 4 µg/mL; in the assay on K. pneumoniae SI-117 it was more than 128 µg/mL; in the assay on K. pneumoniae UMM it was 32 to 64 µg/mL. For the same compound, the MIC is 32 to 64 µg/mL in [1]; 2 to 4 µg/mL in the assay with P. aeruginosa ATCC 35151; more than 128 µg/mL in the assay on P. aeruginosa PAO1 (setting [3]); more than 128 µg/mL with A. baumannii ATCC 19606 (setting [4]); 16 to 32 µg/mL (≈ 28 to 56 µM) in assay [2].

Turning to `C[C@H]1CN(CCO)C(=O)C(=O)N1C(=O)NC(C(=O)N[C@H]1Cc2cccc(C(=O)O)c2OB1O)c1ccc(O)c(O)c1Cl` (stereo partly drawn) [Example 224, (3R)-3-(2-(2-chloro-3,4-dihydroxyphenyl)-2-((S)-4-(2-hydroxyethyl)-6-methyl-2,3-dioxopiperazine-1-carboxamido)acetamido)-2-hydroxy-3,4-dihydro-2H-benzo[e][1,2]oxaborinine-8-carboxylic acid], the MIC in the assay with E. coli AG100 was in the range of 2 to 4 µg/mL; in the assay on E. coli 901C, 0.5 to 1 µg/mL; with E. coli AG100A, 0.5 to 1 µg/mL; with E. coli D22 it was 2 to 4 µg/mL; with K. pneumoniae SI-117, 2 to 4 µg/mL; with K. pneumoniae UMM it was 2 to 4 µg/mL. Also, the MIC is 0.5 to 1 µg/mL in assay [1]; less than 0.25 µg/mL in the assay with P. aeruginosa ATCC 35151; 8 to 16 µg/mL with P. aeruginosa PAO1 (setting [3]); less than 0.25 µg/mL with A. baumannii ATCC 19606 (setting [4]); more than 64 µg/mL in assay [2].

`NCCN1CCN(C(=O)N[C@@H](C(=O)N[C@H]2Cc3cccc(C(=O)O)c3OB2O)c2ncc(O)cc2F)C(=O)C1=O` [Example 225, (R)-3-((R)-2-(4-(2-aminoethyl)-2,3-dioxopiperazine-1-carboxamido)-2-(3-fluoro-5-hydroxypyridin-2-yl)acetamido)-2-hydroxy-3,4-dihydro-2H-benzo[e][1,2]oxaborinine-8-carboxylic acid]: the MIC was 8 to 16 µg/mL with E. coli AG100; 0.5 to 1 µg/mL in the assay on E. coli 901C; 0.5 to 1 µg/mL in the assay on E. coli AG100A; 2 to 4 µg/mL in the assay with E. coli D22; 8 to 16 µg/mL with K. pneumoniae SI-117; 8 to 16 µg/mL with K. pneumoniae UMM. Besides, the MIC in [1] was 2 to 4 µg/mL; in the assay on P. aeruginosa ATCC 35151, 0.5 to 1 µg/mL; in the assay on P. aeruginosa PAO1 (setting [3]), more than 128 µg/mL; in the assay with A. baumannii ATCC 19606 (setting [4]) it was more than 128 µg/mL; in [2], 16 to 32 µg/mL (≈ 28.7 to 57.3 µM).
